Measured values from ChEMBL document CHEMBL5247592, “Discovery of novel VEGFR-2-PROTAC degraders based on the localization of lysine residues via recruiting VHL for the treatment of gastric cancer” (Eur J Med Chem, 2022).
Calls of active or inactive are those of the source. The rule behind the calls is not given here. Residues, ends and D or L forms follow the SMILES beside them. *: point of attachment. Cbz = O=C(OCc1ccccc1)*

Legend:
[1] = molecular target: T1, von Hippel-Lindau disease tumor suppressor/Vascular endothelial growth factor receptor 2 (Homo sapiens, UniProt P35968+P40337); assay: PROTAC activity at VHL/VEGFR2 in human HGC-27 cells assessed as induction of VEGRF2 protein degradation at 10 uM incubated for 2 hrs by Western blot analysis; assay type: cell-based
Target sequence in this assay (P35968 20-1356 limits assumed): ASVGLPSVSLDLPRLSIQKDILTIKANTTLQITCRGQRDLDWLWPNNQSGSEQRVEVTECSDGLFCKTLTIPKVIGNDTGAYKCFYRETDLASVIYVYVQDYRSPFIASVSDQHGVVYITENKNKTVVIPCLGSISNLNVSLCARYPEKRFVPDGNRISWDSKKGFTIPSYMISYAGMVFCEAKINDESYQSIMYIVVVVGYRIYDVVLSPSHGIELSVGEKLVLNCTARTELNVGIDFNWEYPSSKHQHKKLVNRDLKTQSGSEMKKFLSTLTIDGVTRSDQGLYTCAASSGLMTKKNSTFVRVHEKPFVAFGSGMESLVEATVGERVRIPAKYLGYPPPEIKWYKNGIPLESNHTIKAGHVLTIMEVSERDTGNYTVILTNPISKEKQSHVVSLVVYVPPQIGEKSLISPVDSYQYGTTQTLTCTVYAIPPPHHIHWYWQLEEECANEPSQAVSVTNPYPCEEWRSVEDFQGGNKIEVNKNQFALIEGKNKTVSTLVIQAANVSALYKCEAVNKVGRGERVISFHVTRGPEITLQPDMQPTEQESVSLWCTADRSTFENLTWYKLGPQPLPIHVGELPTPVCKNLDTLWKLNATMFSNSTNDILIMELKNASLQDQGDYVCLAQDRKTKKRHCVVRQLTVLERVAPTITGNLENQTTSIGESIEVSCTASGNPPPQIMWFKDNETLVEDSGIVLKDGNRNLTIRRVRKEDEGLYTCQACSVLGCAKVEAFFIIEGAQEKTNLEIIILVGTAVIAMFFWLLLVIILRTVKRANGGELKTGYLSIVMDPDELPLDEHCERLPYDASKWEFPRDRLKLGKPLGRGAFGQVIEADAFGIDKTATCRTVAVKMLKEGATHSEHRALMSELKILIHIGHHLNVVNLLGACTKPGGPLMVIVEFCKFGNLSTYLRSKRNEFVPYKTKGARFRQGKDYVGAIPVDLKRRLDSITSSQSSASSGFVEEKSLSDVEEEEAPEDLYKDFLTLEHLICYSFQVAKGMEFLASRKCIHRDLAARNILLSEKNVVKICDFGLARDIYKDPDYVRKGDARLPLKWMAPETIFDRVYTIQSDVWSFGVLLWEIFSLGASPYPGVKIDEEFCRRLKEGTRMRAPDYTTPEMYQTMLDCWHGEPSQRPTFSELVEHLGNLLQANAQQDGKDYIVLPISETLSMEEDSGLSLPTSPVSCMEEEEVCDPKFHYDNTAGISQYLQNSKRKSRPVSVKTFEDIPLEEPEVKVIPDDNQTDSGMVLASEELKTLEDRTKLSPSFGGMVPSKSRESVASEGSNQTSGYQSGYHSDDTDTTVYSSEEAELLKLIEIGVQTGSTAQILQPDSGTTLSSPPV
Target sequence in this assay (P40337 whole entry partner): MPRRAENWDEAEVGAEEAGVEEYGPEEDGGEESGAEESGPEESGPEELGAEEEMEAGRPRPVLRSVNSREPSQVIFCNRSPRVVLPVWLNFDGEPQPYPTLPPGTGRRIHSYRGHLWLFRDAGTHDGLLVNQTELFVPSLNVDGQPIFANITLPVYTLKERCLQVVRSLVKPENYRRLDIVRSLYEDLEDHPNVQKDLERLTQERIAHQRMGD

[2] = molecular target: T2, Vascular endothelial growth factor receptor 2 (Homo sapiens, UniProt P35968); assay: Inhibition of VEGFR2 (unknown origin) at 1 uM by caliper mobility shift assay relative to control
T2 sequence (P35968 whole entry): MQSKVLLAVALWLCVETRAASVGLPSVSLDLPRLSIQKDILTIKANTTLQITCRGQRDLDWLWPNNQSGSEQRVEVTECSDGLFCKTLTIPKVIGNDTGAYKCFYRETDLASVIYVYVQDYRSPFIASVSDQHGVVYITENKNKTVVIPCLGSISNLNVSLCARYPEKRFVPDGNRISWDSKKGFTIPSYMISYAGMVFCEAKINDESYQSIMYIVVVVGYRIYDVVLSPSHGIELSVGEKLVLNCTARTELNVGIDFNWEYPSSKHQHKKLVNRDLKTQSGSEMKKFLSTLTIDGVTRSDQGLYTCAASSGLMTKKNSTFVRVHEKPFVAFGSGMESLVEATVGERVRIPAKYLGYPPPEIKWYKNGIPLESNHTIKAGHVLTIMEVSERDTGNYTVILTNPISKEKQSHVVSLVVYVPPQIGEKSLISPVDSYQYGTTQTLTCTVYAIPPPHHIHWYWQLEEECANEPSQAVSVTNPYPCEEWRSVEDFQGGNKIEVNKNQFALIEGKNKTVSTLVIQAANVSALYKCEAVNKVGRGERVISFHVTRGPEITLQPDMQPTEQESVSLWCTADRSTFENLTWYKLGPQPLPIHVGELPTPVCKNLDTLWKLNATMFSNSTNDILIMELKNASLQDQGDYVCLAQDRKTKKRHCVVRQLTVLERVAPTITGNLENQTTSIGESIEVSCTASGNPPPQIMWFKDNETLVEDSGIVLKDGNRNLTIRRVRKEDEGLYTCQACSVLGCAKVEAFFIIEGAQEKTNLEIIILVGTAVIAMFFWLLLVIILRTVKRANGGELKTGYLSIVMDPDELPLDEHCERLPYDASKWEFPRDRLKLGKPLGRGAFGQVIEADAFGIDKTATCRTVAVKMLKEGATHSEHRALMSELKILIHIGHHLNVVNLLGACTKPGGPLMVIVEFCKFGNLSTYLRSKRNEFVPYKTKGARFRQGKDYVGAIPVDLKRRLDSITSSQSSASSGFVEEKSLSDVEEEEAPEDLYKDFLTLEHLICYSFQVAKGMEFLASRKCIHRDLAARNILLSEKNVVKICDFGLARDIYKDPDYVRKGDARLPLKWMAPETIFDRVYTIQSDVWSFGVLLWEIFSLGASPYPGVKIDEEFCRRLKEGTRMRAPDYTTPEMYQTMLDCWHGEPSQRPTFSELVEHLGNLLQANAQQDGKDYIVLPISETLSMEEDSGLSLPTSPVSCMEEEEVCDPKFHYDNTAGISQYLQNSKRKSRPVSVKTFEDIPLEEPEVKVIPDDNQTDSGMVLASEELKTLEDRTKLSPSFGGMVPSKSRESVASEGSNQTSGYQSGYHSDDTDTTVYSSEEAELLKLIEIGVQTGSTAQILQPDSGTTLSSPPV

HGC-27 = assay: Antiproliferative activity against human HGC-27 cells assessed as inhibition of cell growth incubated for 72 hrs by MTT assay; assay type: functional, cell-based; settings: HGC-27, 72 h
[3] = Cytotoxicity against HUVEC cells assessed as inhibition of cell growth incubated for 72 hrs by MTT assay; assay type: toxicity, cell-based; settings: human
[4] = Cytotoxicity against HEK293T cells assessed as inhibition of cell growth incubated for 72 hrs by MTT assay; assay type: toxicity, cell-based, HEK-293T; settings: human
[5] = Cytotoxicity against human GES1 cells assessed as inhibition of cell growth incubated for 72 hrs by MTT assay; assay type: toxicity, cell-based
[6] = molecular target: T2, Vascular endothelial growth factor receptor 2; assay: Inhibition of VEGFR2 (unknown origin) by caliper mobility shift assay
[7] = molecular target: T1, von Hippel-Lindau disease tumor suppressor/Vascular endothelial growth factor receptor 2; assay: PROTAC activity at VHL/VEGFR2 in human HGC-27 cells assessed as reduction in VEGFR2 protein level by measuring maximal efficacy at 3.33 uM incubated for 24 hrs by Western blot analysis relative to control; assay type: cell-based
Target sequence in this assay (P35968 20-1356 limits assumed): as the sequence (P35968 20-1356 limits assumed) above
Target sequence in this assay (P40337 whole entry partner): as the sequence (P40337 whole entry partner) above

[8] = molecular target: T1, von Hippel-Lindau disease tumor suppressor/Vascular endothelial growth factor receptor 2; assay: PROTAC activity at VHL/VEGFR2 in human HGC-27 cells assessed as reduction in VEGFR2 protein level incubated for 24 hrs by Western blot analysis; assay type: cell-based
Target sequence in this assay (P35968 whole entry): as the sequence (P35968 whole entry) above
Target sequence in this assay (P40337 whole entry): as the sequence (P40337 whole entry partner) above

[9] = molecular target: T1, von Hippel-Lindau disease tumor suppressor/Vascular endothelial growth factor receptor 2; assay: PROTAC activity at VHL/VEGFR2 in human HGC-27 cells assessed as reduction in VEGFR2 protein level by measuring maximal efficacy incubated for 24 hrs by Western blot analysis relative to control; assay type: cell-based
Target sequence in this assay (P35968 20-1356 limits assumed): as the sequence (P35968 20-1356 limits assumed) above
Target sequence in this assay (P40337 whole entry partner): as the sequence (P40337 whole entry partner) above

[10] = molecular target: T1, von Hippel-Lindau disease tumor suppressor/Vascular endothelial growth factor receptor 2; assay: PROTAC activity at VHL/VEGFR2 in human HGC-27 cells assessed as induction of VEGRF2 protein degradation at 100 nM incubated for 2 hrs by Western blot analysis; assay type: cell-based
Target sequence in this assay (P35968 20-1356 limits assumed): as the sequence (P35968 20-1356 limits assumed) above
Target sequence in this assay (P40337 whole entry partner): as the sequence (P40337 whole entry partner) above

[11] = molecular target: T1, von Hippel-Lindau disease tumor suppressor/Vascular endothelial growth factor receptor 2; assay: PROTAC activity at VHL/VEGFR2 in human HGC-27 cells assessed as induction of VEGRF2 protein degradation at 1 uM incubated for 2 hrs by Western blot analysis; assay type: cell-based
Target sequence in this assay (P35968 20-1356 limits assumed): as the sequence (P35968 20-1356 limits assumed) above
Target sequence in this assay (P40337 whole entry partner): as the sequence (P40337 whole entry partner) above

| Structure (SMILES) | Activity [1] | inhibition [2] | IC50 [6] | Emax [7] | EC50 [8] | Emax [9] | Activity [10] | Activity [11] | IC50 (HGC-27) | IC50 at 72 h [3] | IC50 at 72 h [4] | IC50 at 72 h [5] |
| --- | --- | --- | --- | --- | --- | --- | --- | --- | --- | --- | --- | --- |
| Cc1ccc(NC(=O)Cn2cc(-c3ccc4c(NC(=O)CCCCCCCCCCC(=O)N[C@@H](C(=O)N5C[C@H](O)C[C@H]5C(=O)NCc5ccc(-c6scnc6C)cc5)C(C)(C)C)n[nH]c4c3)cn2)cc1C(F)(F)F |  | 60.4% |  |  |  |  |  |  | > 50 µM | > 50 µM | > 100 µM | > 50 µM |
| CC(C)C[C@@H](C=O)NC(=O)[C@H](CC(C)C)NC(=O)[C@H](CC(C)C)NC(=O)OCc1ccccc1 (Cbz-Leu-Leu-Leu-aldehyde) | inactive |  |  |  |  |  |  |  |  |  |  |  |
| Cc1ccc(NC(=O)Cn2cc(-c3ccc4c(NC(=O)c5ccc(NC(=O)CCCCCCC(=O)N[C@H](C(=O)N6C[C@H](O)C[C@H]6C(=O)NCc6ccc(-c7scnc7C)cc6)C(C)(C)C)cc5)n[nH]c4c3)cn2)cc1C(F)(F)F |  |  |  | 48% | 0.28 µM |  |  |  | 4.36 µM | 4.13 µM | 17.9 µM | 14.3 µM |
| Cc1ccc(NC(=O)Cn2cc(-c3ccc4c(NC(=O)c5ccc(NC(=O)CCCCC(=O)N[C@H](C(=O)N6C[C@H](O)C[C@H]6C(=O)NCc6ccc(-c7scnc7C)cc6)C(C)(C)C)cc5)n[nH]c4c3)cn2)cc1C(F)(F)F |  |  |  | 62.6% | 0.33 µM |  |  |  | 10.1 µM | 13 µM | 46.8 µM | 46.4 µM |
| Cc1ccc(NC(=O)Cn2cc(-c3ccc4c(NC(=O)c5ccc(N)cc5)n[nH]c4c3)cn2)cc1C(F)(F)F |  |  | 0.0027 µM |  |  |  | inactive |  | 2.12 µM | 0.11 µM | 0.025 µM | 2.35 µM |
| Cc1ccc(NC(=O)Cn2cc(-c3ccc4c(NC(=O)c5ccc(N6CCN(CCCCCCC(=O)N[C@H](C(=O)N7C[C@H](O)C[C@H]7C(=O)NCc7ccc(-c8scnc8C)cc7)C(C)(C)C)CC6)cc5)n[nH]c4c3)cn2)cc1C(F)(F)F |  |  |  |  | > 3.33 µM | 38.2% |  |  | 5.5 µM | > 50 µM | 38.6 µM | 22.4 µM |
| Cc1ccc(NC(=O)Cn2cc(-c3ccc4c(NC(=O)c5ccc(NC(=O)CCCCCCCCCCC(=O)N[C@H](C(=O)N6C[C@H](O)C[C@H]6C(=O)NCc6ccc(-c7scnc7C)cc6)C(C)(C)C)cc5)n[nH]c4c3)cn2)cc1C(F)(F)F |  |  |  | 42.9% | 0.89 µM |  |  |  | 5.13 µM | 17.6 µM | 9.45 µM | 31.8 µM |
| Cc1ccc(NC(=O)Cn2cc(-c3ccc4c(NC(=O)c5ccc(N6CCN(CCCCCCCC(=O)N[C@H](C(=O)N7C[C@H](O)C[C@H]7C(=O)NCc7ccc(-c8scnc8C)cc7)C(C)(C)C)CC6)cc5)n[nH]c4c3)cn2)cc1C(F)(F)F |  |  |  |  | > 3.33 µM |  |  |  | 22.6 µM | > 50 µM | > 100 µM | > 100 µM |
| Cc1ccc(NC(=O)Cn2cc(-c3ccc4c(NC(=O)c5ccc(NC(=O)CCCCCCCC(=O)N[C@H](C(=O)N6C[C@H](O)C[C@H]6C(=O)NCc6ccc(-c7scnc7C)cc6)C(C)(C)C)cc5)n[nH]c4c3)cn2)cc1C(F)(F)F |  |  |  |  | > 3.33 µM | 13.5% |  |  | 10.7 µM | > 50 µM | > 100 µM | 10.9 µM |
| Cc1ccc(NC(=O)Cn2cc(-c3ccc4c(NC(=O)c5ccc(N6CCN(C(=O)NCCCCC(=O)N[C@H](C(=O)N7C[C@H](O)C[C@H]7C(=O)NCc7ccc(-c8scnc8C)cc7)C(C)(C)C)CC6)cc5)n[nH]c4c3)cn2)cc1C(F)(F)F |  |  |  |  | > 3.33 µM | 17.3% |  |  | > 50 µM | > 100 µM | > 100 µM | > 100 µM |
| Cc1ccc(NC(=O)Cn2cc(-c3ccc4c(NC(=O)c5ccc(N)cc5)nn(C(=O)CCCCCCCCC(=O)N[C@H](C(=O)N5C[C@H](O)C[C@H]5C(=O)NCc5ccc(-c6scnc6C)cc5)C(C)(C)C)c4c3)cn2)cc1C(F)(F)F |  |  |  |  | > 3.33 µM |  |  |  | 12.1 µM | 5.5 µM | 44.9 µM | 3.36 µM |

More lines, main results first:

| Activity [1] | inhibition [2] | IC50 [6] | Emax [7] | EC50 [8] | Emax [9] | Activity [10] | Activity [11] | Structure (SMILES) | IC50 (HGC-27) | IC50 at 72 h [3] | IC50 at 72 h [4] | IC50 at 72 h [5] |
| --- | --- | --- | --- | --- | --- | --- | --- | --- | --- | --- | --- | --- |
| inactive |  |  |  |  |  |  |  | CC(=O)N[C@H](C(=O)N1C[C@H](O)C[C@H]1C(=O)NCc1ccc(-c2scnc2C)cc1)C(C)(C)C |  |  |  |  |
|  |  | 0.00042 µM |  |  |  |  |  | Cc1ccc(NC(=O)Cn2cc(-c3ccc4c(NC(=O)c5ccc(N6CCNCC6)cc5)n[nH]c4c3)cn2)cc1C(F)(F)F | 2.49 µM | 1.7 µM | 3.57 µM | 1.32 µM |
|  |  |  |  | > 3.33 µM | 31% |  |  | Cc1ccc(NC(=O)Cn2cc(-c3ccc4c(NC(=O)c5ccc(NC(=O)CCCCC(=O)N6CCN(CCCCCCC(=O)N[C@H](C(=O)N7C[C@H](O)C[C@H]7C(=O)NCc7ccc(-c8scnc8C)cc7)C(C)(C)C)CC6)cc5)n[nH]c4c3)cn2)cc1C(F)(F)F | 20.4 µM | 29.6 µM | 24.1 µM | 51.4 µM |
|  | 96.3% |  |  | 0.32 µM | 81.7% |  |  | Cc1ccc(NC(=O)Cn2cc(-c3ccc4c(NC(=O)c5ccc(N)cc5)nn(C(=O)CCCCCCCCCCC(=O)N[C@H](C(=O)N5C[C@H](O)C[C@H]5C(=O)NCc5ccc(-c6scnc6C)cc5)C(C)(C)C)c4c3)cn2)cc1C(F)(F)F | 1.44 µM | 34.6 µM | 25.9 µM | 49.7 µM |
|  |  |  |  | > 3.33 µM | 8.7% |  |  | Cc1ccc(NC(=O)Cn2cc(-c3ccc4c(NC(=O)c5ccc(N6CCN(CCCCC(=O)N[C@H](C(=O)N7C[C@H](O)C[C@H]7C(=O)NCc7ccc(-c8scnc8C)cc7)C(C)(C)C)CC6)cc5)n[nH]c4c3)cn2)cc1C(F)(F)F | > 50 µM | > 50 µM | > 100 µM | 60.3 µM |
|  |  |  |  | 0.64 µM | 38.5% |  |  | Cc1ccc(NC(=O)Cn2cc(-c3ccc4c(NC(=O)c5ccc(NC(=O)CCCCC(=O)N6CCN(CCCCC(=O)N[C@H](C(=O)N7C[C@H](O)C[C@H]7C(=O)NCc7ccc(-c8scnc8C)cc7)C(C)(C)C)CC6)cc5)n[nH]c4c3)cn2)cc1C(F)(F)F | 23.9 µM | 9.36 µM | 38.7 µM | 23.1 µM |
|  |  |  |  |  |  |  | inactive | NS(=O)(=O)OC[C@@H]1C[C@@H](n2ccc3c(N[C@H]4CCc5ccccc54)ncnc32)C[C@@H]1O |  |  |  |  |
